Results published in patent US4289876A, “Antisecretory agents” (Bristol-Myers Company, priority 1980, dated 1981).

Experiments:
[1] = target: T1, histamine H2-receptor (Cavia porcellus, UniProt P47747); assay: Histamine H2-receptor antagonism, isolated guinea pig right atria assay (displacement of histamine concentration-response curve for atrial rate)
T1 construct: The spontaneously beating right atrium was dissected free from other tissues; from tissue; host or cells: isolated spontaneously beating right atrium of male Hartley guinea pigs
Experimental: Subsequent investigations by Hughes and Coret, Proc. Soc. […] Black et al., Agents and Actions, 3, 133 (1973) and Brimblecombe et al., Fed. […] The present comparative studies were carried out using a modification of the procedure reported by Reinhardt et al., Agents and Actions, 4, 217 (1974).
Male Hartley strain guinea pigs (350-450 gm.) were sacrificed by a blow on the head. The heart was excised and placed in a Petri dish of oxygenated (95% O2, 5% CO2) modified Krebs solution (g./liter: NaCl 6.6, KCl 0.35, MgSO4.7 H2 O 0.295, KH2 PO4 0.162, CaCl2 0.238, NaHCO3 2.1 and dextrose 2.09). The spontaneously beating right atrium was dissected free from other tissues and a silk thread (4-0) attached to each end. The atrium was suspended in a 20 ml. muscle chamber containing oxygenated modified Krebs solution maintained at 32° C. Atrial contractions were recorded isometrically be means of a Grass FT 0.03 force displacement transducer and recordings of contractile force and rate were made with Beckman RP Dynograph.
A resting tension of 1 g. was applied to the atrium and it was allowed to equilibrate for 1 hour.
Concentration-response curve displacement factors were calculated as follows: [formula] […] [formula]

[2] = in vivo; cited from earlier work
[3] = test system: histamine H2-receptors; conditions: Black et al., Nature 1972; cited from earlier work
[4] = test system: H2-receptor; conditions: cited from earlier work
[5] = test system: peptic ulcer disease; conditions: clinical evaluation, Gray et al., Lancet 1977; cited from earlier work
[6] = cited from earlier work
[7] = histamine ED50 after 30 minute incubation with test compound at 3 × 10^-5 M

T1 sequence (P47747 whole entry): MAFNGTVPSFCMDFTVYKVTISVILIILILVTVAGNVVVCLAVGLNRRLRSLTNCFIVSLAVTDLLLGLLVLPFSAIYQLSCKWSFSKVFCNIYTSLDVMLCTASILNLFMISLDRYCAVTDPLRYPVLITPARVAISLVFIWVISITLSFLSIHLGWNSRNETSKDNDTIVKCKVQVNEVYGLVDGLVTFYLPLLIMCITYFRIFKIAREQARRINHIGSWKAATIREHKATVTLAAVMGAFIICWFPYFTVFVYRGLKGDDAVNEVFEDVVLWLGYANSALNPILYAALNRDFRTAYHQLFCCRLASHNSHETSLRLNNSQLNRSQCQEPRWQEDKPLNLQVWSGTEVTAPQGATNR

C#CCNC(=C[N+](=O)[O-])NCCSCc1ncccc1Cl [BL-6075, 1-Nitro-2-(2-propynylamino)-2-{2-[(3-chloro-2-pyridyl)methylthio]ethylamino}ethylene]
Activity Ratio Relative to Cimetidine ([1]; Table 1, ratio of displacement factors, 3 × 10^-5 M): 2.09
Histamine ED50 With 95% Confidence Limits [1, 7]: 20.97 µg/mL

C#CCNC(=NCCSCc1ncccc1Cl)NC#N [BL-6083, N-Cyano-N'-(2-propyn-1-yl)-N"-{2-[(3-chloro-2-pyridyl)methylthio]ethyl}guanidine]
potency/activity relative to cimetidine as a histamine H2-receptor antagonist ([1]; based on displacement factors): 8.19 times
Histamine ED50 With 95% Confidence Limits [1, 7]: 57.92 µg/mL

CNC(=S)NCCCCc1cnc[nH]1 [Burimamide]
oral absorption [2]: oral absorption is poor
mode of antagonism at histamine H2-receptors [3]: competitive antagonist

CN/C(=N/CCSCc1nc[nH]c1C)NC#N [Cimetidine]
potency/effectiveness as H2 antagonist vs. earlier compound [4]: as effective an H2 antagonist as metiamide
efficacy in treatment of peptic ulcer disease [5]: effective therapeutic agent in the treatment of peptic ulcer disease
Histamine ED50 With 95% Confidence Limits [1, 7]: 4.80 µg/mL
Concentration-Response Curve Displacement Factor ([1]; test compound 3 × 10^-5 M, rightward displacement of histamine curve): 25.26

NCCc1c[nH]cn1 [Histamine]
Histamine ED50 With 95% Confidence Limits ([1]; histamine control before BL-6075, N=3): 0.39 µg/mL
concentration of maximal response (atrial rate) ([1]; histamine, cumulative addition): 30 µM

C/N=C(\S)NCCSCc1[nH]cnc1C [Metiamide]
potency/effectiveness as H2 antagonist vs. earlier compound [4]: more potent than burimamide
oral activity in man [6]: orally active in man
